# Assay results reported in patent publication US9469647B2, “Salt crystals” (INTRA-CELLULAR THERAPIES, INC., priority 2012, dated 2016).
# Where two headings read alike, the source gives them in different places.
# Tests used:
# [1] = USP2 dissolution study at pH 1 and 4.5; format: physicochemical
# Excerpt: The rate of dissolution is an important factor in the bioavailability of an active pharmaceutical ingredient (API). This is commonly tested using standard conditions e.g. USP 2 dissolution testing. The pH of the aqueous media used can be correlated with the pH of the stomach (low pH −1-2) and the intestines (intermediate acidic pH −4-6). Therefore pH 1 (0.1 M HCl) and a citrate buffer at pH 4.5 (0.2M) are used for the dissolution testing.
# The (6aR,9aS)-5,6a,7,8,9,9a-hexahydro-5-methyl-3-(phenylamino)-2-((4-(6-fluoropyridin-2-yl)phenyl)methyl)-cyclopent[4,5]imidazo[1,2-a]pyrazolo[4,3-e]pyrimidin-4(2H)-one mono-phosphate salt crystals are weighed (×4) into size 0 white gelatine capsules at 119 mg per capsule (equivalent to 100 mg API). The (6aR,9aS)-5,6a,7,8,9,9a-hexahydro-5-methyl-3-(phenylamino)-2-((4-(6-fluoropyridin-2-yl)phenyl)methyl)-cyclopent[4,5]imidazo-[1,2-a]pyrazolo[4,3-e]pyrimidin-4(2H)-one is also weighed (×2) into white gelatine capsules at 100 mg per capsule. These capsules are then dissolved using the standard set up of the USP 2 dissolution equipment i.e., in 1000 mL of the relevant aqueous media, stirrers set at 50 rpm, capsules placed in metal coils to weigh them down, media equilibrated with the water bath set at 37″C. Analytical samples are removed via canula, with an initial filter on the canula and secondary filtering through 0.2 micron syringe filters. The samples are then analysed without dilution by HPLC for API content. Calibration for HPLC is run using both the free base API and the phosphate salt.
# [2] = Bridging study of monophosphate salt and free base in dog (plasma pharmacokinetics); format: in vivo; settings: po, 40 mg/kg; for half-life: read-out: E Half-life (converted)
# Method: The mono-phosphate salt of (6aR,9aS)-5,6a,7,8,9,9a-hexahydro-5-methyl-3-(phenylamino)-2-((4-(6-fluoropyridin-2-yl)phenyl)methyl)-cyclopent[4,5]imidazo[1,2-a]pyrazolo[4,3-e]pyrimidin-4(2H)-one is administered to dogs at a dose of 40 mg/kg in gelatin capsules or via oral gavage in a vehicle formulation of HCl-Citrate, pH 3.5, 0.5% methylcellulose in water. […] The analysis of drug concentration in plasma samples collected is analyzed.
# The pharmacokinetic (PK) parameters are determined from the plasma concentration versus time data by non-compartmental methods with uniform weighting (PK solutions 2.0™, Summit Research Services, Montrose, Colo.). The maximum observed concentration (Cmax) and the time of the maximum observed concentration (tmax) are obtained from the bioanalytical raw data. The area-under-the-plasma concentration-time curve from time zero to the time of the last measurable sample (AUC_) is calculated by the trapezoidal rule.
# [3] = Solubility study of phosphate salt crystals in aqueous media at pH 1.2-6.8; format: physicochemical; settings: for solubility at 1 hr / solubility at 16 hr: thermodynamic from solid; for solubility at 1 hr: read-out: Solubility after 1 hr; for solubility at 16 hr: read-out: Solubility after 16 hrs
# Method: The (6aR,9aS)-5,6a,7,8,9,9a-hexahydro-5-methyl-3-(phenylamino)-2-((4-(6-fluoropyridin-2-yl)phenyl)methyl)-cyclopent[4,5]imidazo[1,2-a]pyrazolo[4,3-e]pyrimidin-4(2H)-one mono-phosphate salt crystals are assessed for its aqueous solubility at lower pH. The (amorphous) free base is also tested for reference at a limited range of pH.
# Phosphate (buffer) solutions are made at 50 mM concentration and the pH is adjusted to pH 2, 3, 4, 5 or 6.8 using either 3M phosphoric acid (lower pH) or 3M NaOH (higher pH). 0.1N HCl is also used, pH is measured as 1.2.
# 20 mg of the (6aR,9aS)-5,6a,7,8,9,9a-hexahydro-5-methyl-3-(phenylamino)-2-((4-(6-fluoropyridin-2-yl)phenyl)methyl)-cyclopent[4,5]imidazo[1,2-a]pyrazolo[4,3-e]pyrimidin-4(2H)-one mono-phosphate salt crystals or free base is weighed into a glass vial, and 2 ml of the relevant aqueous media is added. The vials are shaken. After 1 hr, a sample (˜1 ml) is removed via syringe, and filtered through a syringe filter (0.2 micron) into an HPLC vial. After shaking the suspensions for 16 hours, a second sample is taken. All samples are then diluted with the HPLC diluent by a factor of 1000 (except the pH 6.8 samples which are diluted ×10), and re-analysed by HPLC. In cases where the entire solid dissolved, the 2 ml solution is added to another 20 mg salt or free base.
# [4] = test system: phosphodiesterase 1 (PDE 1); settings: statement referring to WO 2009/075784; cited from earlier work
# [5] = both sexes, Mean (M-5001 to F-5102), oral gavage
# [6] = female, dog F-5101, oral gavage
# [7] = female, dog F-5102, oral gavage
# [8] = 50 mM phosphate buffer, pH 2, aqueous buffer, pH 2, 50 mM phosphate buffer
# [9] = 0.1N HCl, pH 1.2, simulated gastric fluid, pH 1.2 (0.1N HCl)
smiles,measurement,setting,value
"CN1C(=O)c2c(nn(Cc3ccc(-c4cccc(F)n4)cc3)c2Nc2ccccc2)N2C1=N[C@@H]1CCC[C@@H]12 [Free base API (amorphous), (6aR,9aS)-5,6a,7,8,9,9a-hexahydro-5-methyl-3-(phenylamino)-2-((4-(6-fluoropyridin-2-yl)phenyl)methyl)-cyclopent[4,5]imidazo[1,2-a]pyrazolo[4,3-e]pyrimidin-4(2H)-one]",solubility at low pH in dissolution study,"[1]; pH 1 (0.1 M HCl), 37 C",good solubility
same,time to full dissolution,"[1]; pH 1, about 0.1 mg/mL (API equivalent), capsule in 1000 mL, 50 rpm",approximately 15 minutes
same,AUC,[2]; [5],19200 ng·h/mL
same,Cmax,[2]; [5],1020 ng/mL
same,Tmax,[2]; [5],4 h
same,half-life,[2]; [5],10.8 h
same,AUC,[2]; [6],11500 ng·h/mL
same,Cmax,[2]; [6],674 ng/mL
same,Tmax,[2]; [6],8 h
same,half-life,[2]; [6],6.7 h
same,AUC,[2]; [7],14300 ng·h/mL
same,Cmax,[2]; [7],2000 ng/mL
same,Tmax,[2]; [7],2 h
same,half-life,[2]; [7],5.5 h
same,AUC,"[2]; male, dog M-5001, oral gavage",20100 ng·h/mL
same,Cmax,"[2]; male, dog M-5001, oral gavage",902 ng/mL
same,Tmax,"[2]; male, dog M-5001, oral gavage",4 h
same,half-life,"[2]; male, dog M-5001, oral gavage",14.8 h
same,AUC,"[2]; male, dog M-5002, oral gavage",36500 ng·h/mL
same,Cmax,"[2]; male, dog M-5002, oral gavage",1320 ng/mL
same,Tmax,"[2]; male, dog M-5002, oral gavage",4 h
same,half-life,"[2]; male, dog M-5002, oral gavage",16.7 h
same,solubility at 1 hr,[3]; [8],> 20 mg/mL
same,solubility at 16 hr,[3]; [8],> 20 mg/mL
same,solubility at 1 hr,[3]; [9],> 20 mg/mL
same,solubility at 16 hr,[3]; [9],> 20 mg/mL
same,Solubility after 1 hr,"[3]; pH 3, 50 mM phosphate buffer",2.5 mg/mL
same,Solubility after 16 hrs,"[3]; pH 3, 50 mM phosphate buffer",2.2 mg/mL
same,PDE1 inhibition (potency and selectivity in words),[4],potent and selective phosphodiesterase 1 (PDE 1) inhibitor
